# Experimental data: ChEMBL document CHEMBL1121763, “2,3-Dihydrobenzofuran-2-ones: a new class of highly potent antiinflammatory agents” (J Med Chem, 1981)
# Columns and labels:
# [1] = biological target: Cyclooxygenase (Bos taurus)
# Rattus norvegicus [2] = species on record: Rattus norvegicus; test: animal or person; format: functional; settings: po, 3 h
# Description: Compound administered perorally for inhibition of carrageenan induced paw edema after 3h in rat
# Rattus norvegicus [3] = test: Inhibition of adjuvant-induced polyarthritis in rat following p.o. administration.; format: functional; settings: po
Compound,IC50 [1] [nM],ED50 (Rattus norvegicus [2]) [mg/kg],ED50 (Rattus norvegicus [3]) [mg/kg]
O=C1Cc2cc(C3CCCCC3)ccc2O1,10000,> 60,
O=C1Cc2ccccc2O1,> 100000,> 60,
O=C1Cc2cc([N+](=O)[O-])c(C3CCCCC3)cc2O1,500,6,4
O=C1Cc2ccc(C3CCCC3)cc2O1,10000,30,60
CC1C(=O)Oc2cc(C3CCCCC3)ccc21 (configuration not stated),400,0.8,2.5
O=C1Cc2cc(Br)c(C3CCCCC3)cc2O1,30,2,7
CC(C)Cc1ccc2c(c1)OC(=O)C2,3000,8,> 40
COc1cc2c(cc1-c1ccccc1)OC(=O)C2,10000,30,30
O=C1Cc2cc(Cl)c(-c3ccccc3)cc2O1,80,1,3
Cc1cc2c(cc1C1CCCCC1)OC(=O)C2C (configuration not stated),100,6,< 3
O=C1Cc2cc(O)c(-c3ccccc3)cc2O1,50000,> 30,
CC1C(=O)Oc2cc(-c3ccccc3)c(Cl)cc21 (configuration not stated),80,0.3,2
Cc1cc2c(cc1C1CCCCC1)OC(=O)C2,100,3,1.5
CC1C(=O)Oc2cc(-c3ccccc3)ccc21 (configuration not stated),500,2.5,14
O=C1Cc2cc(Cl)c(C3CCCCC3)c(Cl)c2O1,1000,2,30
O=C1Cc2ccc(C3CCCCC3)c(Br)c2O1,3000,36,> 30
O=C1Cc2ccc(C3CCCCC3)cc2O1,800,1,20
CCC1C(=O)Oc2cc(-c3ccccc3)ccc21 (configuration not stated),50000,25,> 30
CC1C(=O)Oc2cc(C3CCCCC3)c(Cl)cc21 (configuration not stated),70,0.3,1
O=C1Cc2ccc(-c3ccccc3)cc2O1,700,6,20
O=C1Cc2cccc(C3CCCCC3)c2O1,100000,> 60,> 30
O=C1Cc2cc(Cl)c(C3CCCCC3)cc2O1 [CLOFURAC],50,0.5,1
O=C(O)Cc1ccccc1Nc1c(Cl)cccc1Cl [DICLOFENAC],,3,2
COc1ccc2c(c1)c(CC(=O)O)c(C)n2C(=O)c1ccc(Cl)cc1 [INDOMETHACIN],,2,0.4
